13 compounds from patent US20220235011A1, “PHTHALAZINONE COMPOUNDS AND USE THEREOF” (ST PHARM CO., LTD., priority 2019, published 2022) can be followed below.

The test deals with T1, Sirt6 (Homo sapiens, UniProt Q8N6T7).
T1 construct: purchased CycLex CY-1156V2
T1 sequence (Q8N6T7 whole entry): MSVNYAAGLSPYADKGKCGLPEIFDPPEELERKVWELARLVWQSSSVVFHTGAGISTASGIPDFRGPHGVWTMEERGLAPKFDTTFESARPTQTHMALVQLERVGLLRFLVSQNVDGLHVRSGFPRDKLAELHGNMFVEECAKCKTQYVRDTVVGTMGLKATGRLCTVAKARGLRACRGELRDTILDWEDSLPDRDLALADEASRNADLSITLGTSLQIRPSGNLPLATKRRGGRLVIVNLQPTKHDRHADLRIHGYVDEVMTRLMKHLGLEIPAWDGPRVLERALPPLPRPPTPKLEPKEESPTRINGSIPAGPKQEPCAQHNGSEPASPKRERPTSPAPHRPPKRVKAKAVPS
As to the kind of experiment: Measurement of Sirt6 Activity (CycLex Sirt6 Deacetylase Fluorometric Assay Kit). Format: biochemical. As to conditions: compound at 10 μM; fluorescence relative to the group without compound treatment (positive control group). Summed up:
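Recombinant Sirt6 with fluoro-labelled acetyl-lysine peptide, NAD and lysylendopeptidase developer, compound added from 10× stock in PBS; 1 h at room temperature. Fluorescence read at ex 490/em 530 nm; activation expressed as fluorescence ratio relative to enzyme without compound.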
`CC(C)(C(=O)Nc1ccccc1)c1cccc(-c2nn(-c3ccc(F)cc3F)c(=O)c3ccccc23)c1` [Example 181, 2-(3-(3-(2,4-difluorophenyl)-4-oxo-3,4-dihydrophthalazin-1-yl)phenyl)-2-methyl-N-phenylpropanamide]: the “Sirt6 Activity (% activity, 10 μM)” value is reported as 122.10 % activity.

On to `Cl.NC1CCCCN(c2nn(-c3ccc(F)cc3)c(=O)c3ccccc23)C1` (stereo not shown) [Example 148, 4-(3-Aminoazepan-1-yl)-2-(4-fluorophenyl)phthalazin-1(2H)-one-hydrochloride], for which the “Sirt6 Activity (% activity, 10 μM)” value came to 184.3 % activity.

Consider `CS(=O)(=O)c1cccc(-c2nn(C3CCCCC3)c(=O)c3ccccc23)c1` [Example 154, 2-Cyclohexyl-4-(3-(methylsulfonyl)phenyl)phthalazin-1(2H)-one], for which the “Sirt6 Activity (% activity, 10 μM)” value amounted to 263.7 % activity.

On to `O=c1c2ccccc2c(-c2ccc(Cl)c([N+](=O)[O-])c2)nn1-c1ccc(F)cc1` [Example 59, 4-(4-Chloro-3-nitrophenyl)-2-(4-fluorophenyl)phthalazin-1(2H)-one], for which the “Sirt6 Activity (% activity, 10 μM)” value came out at 109 % activity.

As for `CC(C)(C)/[N+]([O-])=C/c1ccc(F)c(-c2nn(-c3ccc(F)cc3)c(=O)c3ccccc23)c1` [Example 57, (Z)—N-tert-Butyl-1-(4-fluoro-3-(3-(4-fluorophenyl)-4-oxo-3,4-dihydrophthalazin-1-yl)phenyl) Methanimine Oxide], the “Sirt6 Activity (% activity, 10 μM)” value is given as 149 % activity.

On to `CN[C@H]1CCCCN(c2nn(C3CCCCC3)c(=O)c3ccccc23)C1.Cl` [Example 156, (S)-2-Cyclohexyl-4-(3-(methylamino)azepan-1-yl)phthalazin-1(2H)-one-hydrochloride], for which the “Sirt6 Activity (% activity, 10 μM)” value is on record as 223.9 % activity.

For `CN(c1cccc(-c2nn(-c3ccc(F)cc3)c(=O)c3ccccc23)c1)S(=O)(=O)C(F)(F)F` [Example 78, 1,1,1-Trifluoro-N-(3-(3-(4-fluorophenyl)-4-oxo-3,4-dihydrophthalazin-1-yl)phenyl)-N-methylmethane Sulfonamide], the “Sirt6 Activity (% activity, 10 μM)” value was determined as 122 % activity.

As for `CCS(=O)(=O)Nc1cccc(-c2nn(C3CCC(F)(F)CC3)c(=O)c3ccccc23)c1` [Example 140, N-(3-(3-(4,4-Difluorocyclohexyl)-4-oxo-3,4-dihydrophthalazin-1-yl)phenyl)ethanesulfonamide], the “Sirt6 Activity (% activity, 10 μM)” value was found to be 134.41 % activity.

`C/[N+]([O-])=C/c1cccc(-c2nn(-c3ccccc3F)c(=O)c3ccccc23)c1` [Example 94, (Z)-1-(3-(3-(2-Fluorophenyl)-4-oxo-3,4-dihydrophthalazin-1-yl)phenyl)-N-methyl Methanimine Oxide]: the “Sirt6 Activity (% activity, 10 μM)” value is 272 % activity.

On to `CNS(=O)(=O)c1cccc(-c2nn(-c3ccc(F)cc3)c(=O)c3ccccc23)c1` [Example 86, 3-(3-(4-Fluorophenyl)-4-oxo-3,4-dihydrophthalazin-1-yl)-N-methylbenzenesulfonamide], for which the “Sirt6 Activity (% activity, 10 μM)” value was 196 % activity.

In the case of `CN(C)S(=O)(=O)Nc1cc(-c2nn(-c3ccccc3)c(=O)c3ccccc23)ccc1Cl` [Example 19, N-(3-(3-(Phenyl)-4-oxo-3,4-dihydrophthalazin-1-yl)-6-chlorophenyl)dimethyl Sulfamoylamide], the “Sirt6 Activity (% activity, 10 μM)” value is listed as 120 % activity.

Consider `CC(C)/[N+]([O-])=C/c1cccc(-c2nn(-c3ccc(-c4ccccc4)cc3)c(=O)c3ccccc23)c1` [Example 85, (Z)-1-(3-(3-([1,1′-Biphenyl]-4-yl)-4-oxo-3,4-dihydrophthalazin-1-yl)phenyl)-N-isopropylmethanimine Oxide], for which the “Sirt6 Activity (% activity, 10 μM)” value is reported as 118 % activity.

As to `CCS(=O)(=O)c1cccc(-c2nn(-c3ccc(F)cc3F)c(=O)c3ccc(F)cc23)c1` [Example 123, 2-(2,4-Difluorophenyl)-4-(3-(ethylsulfonyl)phenyl)-6-fluorophthalazin-1(2H)-one], the “Sirt6 Activity (% activity, 10 μM)” value is recorded as 253 % activity.
